Results reported in patent US20240115557A1, “INHIBITORS OF RNA-GUIDED NUCLEASES AND USES THEREOF” (The Brigham and Women's Hospital, Inc., priority 2022, published 2024).

Target: T1, SaCas9 (Staphylococcus aureus, UniProt J7RUA5)
T1 sequence (J7RUA5 1-1053): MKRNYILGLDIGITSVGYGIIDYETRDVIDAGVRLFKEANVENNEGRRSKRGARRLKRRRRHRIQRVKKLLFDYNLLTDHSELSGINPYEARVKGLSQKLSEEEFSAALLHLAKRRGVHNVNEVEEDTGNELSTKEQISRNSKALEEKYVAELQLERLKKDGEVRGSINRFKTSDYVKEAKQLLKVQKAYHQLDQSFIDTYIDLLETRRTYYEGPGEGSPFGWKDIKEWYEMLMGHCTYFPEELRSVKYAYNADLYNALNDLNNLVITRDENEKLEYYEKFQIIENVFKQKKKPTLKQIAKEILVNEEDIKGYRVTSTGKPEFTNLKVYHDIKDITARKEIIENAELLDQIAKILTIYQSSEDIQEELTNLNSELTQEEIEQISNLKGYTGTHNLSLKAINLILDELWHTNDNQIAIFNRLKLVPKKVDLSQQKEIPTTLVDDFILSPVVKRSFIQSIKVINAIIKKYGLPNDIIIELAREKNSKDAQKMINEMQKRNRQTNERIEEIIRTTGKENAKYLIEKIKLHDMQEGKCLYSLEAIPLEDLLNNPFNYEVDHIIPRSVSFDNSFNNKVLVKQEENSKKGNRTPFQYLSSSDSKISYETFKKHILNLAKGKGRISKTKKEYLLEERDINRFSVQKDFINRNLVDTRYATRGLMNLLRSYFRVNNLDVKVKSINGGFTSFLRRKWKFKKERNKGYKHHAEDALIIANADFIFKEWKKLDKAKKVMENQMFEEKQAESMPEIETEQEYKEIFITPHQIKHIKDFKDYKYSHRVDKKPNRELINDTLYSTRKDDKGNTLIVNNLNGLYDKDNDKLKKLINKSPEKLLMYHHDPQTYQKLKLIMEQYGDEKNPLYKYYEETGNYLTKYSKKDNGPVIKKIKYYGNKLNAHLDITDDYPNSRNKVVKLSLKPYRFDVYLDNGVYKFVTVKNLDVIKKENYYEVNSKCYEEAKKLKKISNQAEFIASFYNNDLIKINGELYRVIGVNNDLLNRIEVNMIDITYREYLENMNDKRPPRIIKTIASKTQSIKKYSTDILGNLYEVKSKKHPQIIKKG
Experiment: Strand displacement assay, SaCas9 primary screen
Type: biochemical
Settings: for Auto Zscore Rep 1 / Auto Zscore Rep 2 / Normalized Zscore Rep 1 / Normalized Zscore Rep 2: SaCas9 primary screen; for Auto Zscore Rep 1 / Normalized Zscore Rep 1: replicate 1; for Auto Zscore Rep 2 / Normalized Zscore Rep 2: replicate 2; for Normalized Zscore Rep 1 / Normalized Zscore Rep 2: weaker potential hits; for 3 sigma Hit: flag 1 = hit at 3 sigma; for 5 sigma Hit: flag 1 = hit at 5 sigma
Protocol: An overview of the screening for SaCas9 inhibitors is depicted in FIG. 14. A total of 43,168 Compounds were screened from the ICCB Libraries. Libraries screened for the initial compounds include ChemDiv 7 (34,848 cpds), Enamine 1 (5,280 cpds), ChemDiv1 (1,760 cpds), NIH Clinical Collection (450 cpds), Biomol 4—FDA Approved Library (640 cpds). A hit is determined from the Zscore, with 3-5σ being a weak hit, >5σ being a strong hit. The results of the hits include 193 Weak Hits and 249 Strong Hits. The NIH Clinical Collection 1-2014 was screened for 450 of 450 compounds, with 7 hits—1.5%. The Biomol 4—FDA Approved Library was screened for 640 of 640 compounds, with 8 hits—1.2%. […] Enamine 1 was screened for 5,280 of 6,004 compounds, with 44 hits—0.83%. Libraries are commercially available, with reference numbers utilized for compounds identifying the compound structures used. […]
Generalization of CAA to other Cas nucleases. Applicants sought to generalize CAA to other CRISPR-associated nucleases, including from Staphylococcus aureus (SaCas9). Given the similarities between SaCas9 and SpCas9 modes of DNA-substrate binding and protein folding,^26, 27 Applicants hypothesized that SaCas9-induced strand displacement could be similarly measured. Indeed, fluorescence quenching correlated with substrate cleavage in the CAA assay with active SaCas9:gRNA and an ACGGGT PAM sequence, which was validated with gel electrophoresis (FIG. 62F,G and FIG. 69F).
First, Applicants optimized various components and conditions of the strand displacement assay for Cas enzyme activity and generality with different Cas such as SpCas9 (FIG. 62B) or SaCas9 (FIG. 69F) or FnCas12a (FIG. 70A,B). Typically, SpCas9: gRNA (1:1.2 ratio) RNP was pre-formed at 1 μM in Cas9 assay buffer (20 mM Tris-HCl, pH=7.5, 100 mM KCl, 5 mM MgCl2) for 5 min at 4° C. before diluting to 10 nM in Cas9 assay buffer (2× final concentration). 25 μL of the Cas9 2× stock was manually dispensed to a black 384-well plate (Corning 3575) using electronic pipette. Apo SpCas9 (without guide RNA) was used at the same concentration as a control for no activity (mock inhibition). Following this, pre-annealed Alexa-Fluor 647 labeled substrate and quencher were also diluted to 1 nM and 5 nM in Cas9 assay buffer, respectively (2× stock solution). Next, 25 μL of the substrate/quencher solution was added manually to each well of the Cas9-containing 384-well plates using an electronic pipette and was incubated at 37° C. for 2.5 h. Fluorescent signals were read with the microplate reader set to read Alexa-Fluor 647 fluorescence. Assay was performed similarly with SaCas9 and FnCas12a using the respective enzyme, gRNA, substrate, and quencher oligos. Applicants similarly divulged the effect of PAM sequences of dsDNA on its assay specificity using TGG, TGC, AAC PAM containing substrates for SpCas9 (FIG. 62C), and ACGGGT, ACGGTT, TGCCCA PAM substrate for SaCas9 (FIG. 62F) and TTTC, TTGC, AAAG PAM substrates for FnCpf1 (FIG. 63B-C). Applicants also optimized the effective concentration of DS-AF647 and SS-AF647 fluorophores (FIG. 64A), DS-substrate to SpCas9 RNP ratio (FIG. 64B) and substrate to quencher ratio (FIG. 64C) on assay performance. Similarly, Applicants performed a time course experiment to establish the time required for maximum completion of the reaction at various substrate to SpCas9 RNP ratios (FIG. 64D).

| Structure (SMILES) | Auto Zscore Rep 1 | Auto Zscore Rep 2 | Normalized Zscore Rep 1 | Normalized Zscore Rep 2 | 3 sigma Hit | 5 sigma Hit |
| --- | --- | --- | --- | --- | --- | --- |
| O=c1oc2c(O)c(O)ccc2c2c1CCC2 [Cpd D715-0012] | −0.8066 | −0.8068 | 0.4402 | 0.5823 | 1 | 1 |
| O=C1CC(c2ccc(O)c(O)c2)c2c(nc(SCc3cccc(Cl)c3)[nH]c2=O)N1 (stereo not drawn) [Cpd D271-0012] | 0.2548 | 0.7649 | 0.1908 | 0.1893 | 1 | 1 |
| Cc1cc(C)c(S(=O)(=O)Nc2cnc(N(CC(C)C)CC(C)C)c(C(=O)O)c2)cc1C [Cpd F293-0589] | 1.656 | 0.2997 | 0.335 | 0.2929 | 1 | 1 |
| CC1(C)CC(=O)C2=C(C1)Nc1onc(C(C)(C)C)c1C2c1ccc(O)c(O)c1 (stereo not drawn) [Cpd D733-0293] | −1.043 | 2.015 | 0.4191 | 0.3634 | 1 | 1 |
| CN(C)S(=O)(=O)Nc1ccc(N2CCN(CC(=O)N3CCCC3)CC2)c(C(=O)O)c1 [Cpd F290-0671] | −0.453 | −0.8512 | 0.1922 | 0.2017 | 1 | – |
| CN(C)c1ncc(NS(=O)(=O)c2ccc(F)c(F)c2)cc1C(=O)O [Cpd F293-0815] | 1.676 | 1.235 | 0.2087 | 0.159 | 1 | – |
| Cc1cc(-c2nn3c(C(C)C)nnc3s2)no1 [Cpd D727-0612] | −0.2589 | −0.2694 | 0.1368 | 0.1972 | 1 | – |
| CCSc1nc2c(c(=O)[nH]1)C(c1ccc(O)c(O)c1)CC(=O)N2 (stereo not drawn) [Cpd D271-0002] | −0.5592 | 0.1026 | 0.2655 | 0.3207 | 1 | 1 |
| COc1ccc(-c2[nH]nc3nc(-c4ccc(O)c(O)c4)cc(C(=O)O)c23)cc1 [Cpd C202-1892] | −1.82 | −0.3926 | 0.4084 | 0.4043 | 1 | 1 |
| COc1ccc(OC)c(S(=O)(=O)Nc2cnc(N3CCCC3)c(C(=O)O)c2)c1 [Cpd F293-0436] | −1.371 | 1.264 | 0.1977 | 0.2223 | 1 | – |
| CCN(CCN(C)C)c1ncc(NS(=O)(=O)c2cc(C)c(C)cc2C)cc1C(=O)O [Cpd F293-0515] | 2.129 | 2.544 | 0.2953 | 0.3056 | 1 | 1 |

Next, values leading:

| Auto Zscore Rep 1 | Auto Zscore Rep 2 | Normalized Zscore Rep 1 | Normalized Zscore Rep 2 | 3 sigma Hit | 5 sigma Hit | Structure (SMILES) |
| --- | --- | --- | --- | --- | --- | --- |
| −0.4204 | −0.1511 | 0.1614 | 0.1636 | 1 | – | Cc1cccc(NC(=O)C2CCCN(c3ccc(-c4ccccc4)nn3)C2)c1 (stereo not drawn) [Cpd F305-0007] |
| 0.1661 | 0.1101 | 0.2065 | 0.1929 | 1 | – | O=C(c1ccccc1)c1cnc2ccc(F)cc2c1S(=O)(=O)c1ccc(F)cc1 [Cpd C770-0245] |
| 1.316 | 1.188 | 0.2339 | 0.1885 | 1 | 1 | Cn1nc(-c2ccc(Cl)cc2)c2cc(C(=O)O)sc21 [Cpd C660-1021] |
| 0.429 | 0.8302 | 0.3494 | 0.3285 | 1 | 1 | COc1cccc(CNCc2cccn2-c2sc(C)c(C)c2C(=O)O)c1 [Cpd C795-1664] |
| −0.2858 | −0.7265 | 0.1668 | 0.1791 | 1 | – | CCN(Cc1ccccc1)c1ccc(NS(=O)(=O)CC)cc1C(=O)O [Cpd F294-0006] |
| 0.8466 | −0.6764 | 0.2272 | 0.2685 | 1 | 1 | Fc1ccc(-c2nn3c(CSc4ccccc4)nnc3s2)cc1 [Cpd D727-0190] |
| 0.3791 | −0.09351 | 0.2023 | 0.2291 | 1 | – | CCN(Cc1ccccc1)c1ncc(NS(=O)(=O)c2c(C)cc(C)cc2C)cc1C(=O)O [Cpd F293-0002] |
| −0.03529 | 0.492 | 0.2255 | 0.1818 | 1 | – | Cc1sc2c(c1C)CSC(C(=O)Nc1c(C)n(C)n(-c3ccccc3)c1=O)=C2 [Cpd E722-1395] |
| 0.9351 | −0.9427 | 0.5034 | 0.5292 | 1 | 1 | Cc1nn2c(=O)cc(COc3ccc(C)c(C)c3)nc2s1 [Cpd C679-2752] |
| 0.05393 | −1.233 | 0.4933 | 0.4517 | 1 | 1 | Cc1cc(Nc2ccccc2)n(-c2ccccc2C(=O)O)n1 [Cpd T0513-3165] |
